In patent US7091357B2, “Chain-modified pyridino-N substituted nicotine compounds for use in the treatment of CNS pathologies” (University of Kentucky Research Foundation, priority 2001, dated 2006) one finds Ki and IC50 data, which are given here for 16 compounds.

Test [1] addresses T1, α7 neuronal nicotinic acetylcholine receptor subtype (Rattus norvegicus, UniProt Q05941).
T1 construct: from tissue; host or cells: rat brain membranes (without cortex, striatum and cerebellum)
Put plainly: [3H]-MLA binding assay, rat brain membranes. The following applies: read-out: Ki, displacement of [3H]-MLA binding.
Procedure: Rat brain tissue (without cortex, striatum and cerebellum) was homogenized with a Tekmar Polytron (setting 40) in 20 volumes of ice-cold hypotonic buffer (2 mM HEPES, 14.4 mM NaCl, 0.15 mM KCl, 0.2 mM CaCl2 and 0.1 mM MgSO4, pH=7.5). The homogenate was incubated at 37° C. for 10 minutes and centrifuged at 25,000×g for 15 minutes at 40° C. The pellet was washed 3 times more by resuspension in the 20 volumes of the same buffer and centrifugation at the above parameters. The final pellet was stored at −20° C. under 4.6 ml of the incubation buffer and was suspended just before the incubation with radioligand.
The binding of [^3H]methyllycaconitine ([^3H]MLA), a probe for the α7 neuronal nicotinic acetylcholine receptor subtype, was determined using a modification of the method of Davies et al., “Characterisation of the binding of [^3H]methyllycaconitine: a new radioligand for labelling α7-type neuronal nicotinic acetylcholine receptors”, Neuropharmacology, 38, 679–690 (1999). [^3H]-MLA (25.4 Ci/mmol) was purchased from Tocris Cookson Ltd., Bristol, U.K. Binding was performed in duplicate, in a final volume of 250 μL of the incubation medium, containing 20 mM HEPES, 144 mM NaCl, 1.5 mM KCl, 2 mM CaCl2, 1 mM MgSO4 and 0.05% BSA, pH=7.5. Reaction was initiated by the addition of 100 μl of membrane suspension to the samples containing a desired concentration of test compounds and 2.5 nM [^3H]-MLA (final concentration) and incubated for 2 hours at room temperature. Total binding was measured in the absence of unlabelled ligand, and nonspecific binding was determined in the presence of 1 μM unlabelled MLA. The binding reaction was terminated by dilution of samples with 3 ml of ice-cold incubation buffer followed by immediate filtration through presoaked in 0.5% polyethylenimine glass fiber filters (S&S, grade #32) using a Brandel harvester system. Filters were rinsed three times with 3 ml of ice-cold buffer, transferred to scintillation vials and 4 ml of scintillation cocktail was added.

The target in test [2] is T2, Rat Striatal Nicotinic Acetylcholine Receptors (Rattus norvegicus, UniProt P09483+P12390).
T2 construct: from tissue; host or cells: rat striatal membranes
T2 sequence (P09483 31-630): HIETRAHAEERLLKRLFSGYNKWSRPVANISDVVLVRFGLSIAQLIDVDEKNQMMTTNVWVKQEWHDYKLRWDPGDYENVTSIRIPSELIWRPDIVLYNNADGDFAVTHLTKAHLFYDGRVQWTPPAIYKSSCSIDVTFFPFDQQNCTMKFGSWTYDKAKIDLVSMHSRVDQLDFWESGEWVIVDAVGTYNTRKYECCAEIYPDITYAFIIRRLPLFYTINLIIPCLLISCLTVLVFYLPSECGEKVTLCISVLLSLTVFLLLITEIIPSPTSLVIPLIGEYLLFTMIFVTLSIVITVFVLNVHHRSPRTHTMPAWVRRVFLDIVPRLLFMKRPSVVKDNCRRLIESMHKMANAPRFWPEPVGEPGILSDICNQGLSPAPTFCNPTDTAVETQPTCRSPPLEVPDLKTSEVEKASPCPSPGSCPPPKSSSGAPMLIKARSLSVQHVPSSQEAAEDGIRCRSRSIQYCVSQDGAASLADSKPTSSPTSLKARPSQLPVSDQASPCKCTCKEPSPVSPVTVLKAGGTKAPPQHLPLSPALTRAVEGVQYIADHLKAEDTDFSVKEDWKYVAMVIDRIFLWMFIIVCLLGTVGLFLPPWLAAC
T2 sequence (P12390 25-500): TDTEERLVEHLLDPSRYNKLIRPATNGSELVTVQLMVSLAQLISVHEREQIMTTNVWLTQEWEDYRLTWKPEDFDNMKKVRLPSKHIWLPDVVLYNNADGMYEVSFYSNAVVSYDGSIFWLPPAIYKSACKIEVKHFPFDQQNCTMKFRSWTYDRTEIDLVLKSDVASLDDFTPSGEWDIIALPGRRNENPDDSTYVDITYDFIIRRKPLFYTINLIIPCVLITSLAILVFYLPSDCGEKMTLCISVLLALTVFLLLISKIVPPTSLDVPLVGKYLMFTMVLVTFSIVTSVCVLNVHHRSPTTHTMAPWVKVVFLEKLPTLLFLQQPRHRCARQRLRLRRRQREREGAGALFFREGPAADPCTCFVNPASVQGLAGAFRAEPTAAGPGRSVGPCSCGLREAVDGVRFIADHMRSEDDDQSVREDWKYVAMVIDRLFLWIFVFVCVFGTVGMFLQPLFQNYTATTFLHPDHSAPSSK
Put plainly: [3H]-NIC binding assay, rat striatal membranes. To be noted: 3 nM [3H]-NIC, at least 3 independent experiments, read-out: Ki, displacement of [3H]-NIC binding. For orientation: Displacement assays read how much labelled ligand stays bound in the presence of the test substance.
Procedure: Striata from two rats were dissected, pooled, and homogenized with a Tekmar polytron in 10 volumes of ice-cold modified Krebs-HEPES buffer (20 mM HEPES, 118 mM NaCl, 4.8 mM KCl, 2.5 mM CaCl2, 1.2 mM MgSO4, adjusted to pH 7.5). The homogenates were incubated at 37° C. for 5 minutes and centrifuged at 15,000 g for 20 minutes. The pellet was resuspended in 10 volumes of ice-cold MilliQ water, incubated for 5 minutes at 37° C., and centrifuged at 15,000 g for 20 mm. The second pellet was then resuspended in 10 volumes of fresh ice-cold 10% Krebs-HEPES buffer, incubated at 37° C., and centrifuged at 15,000 g for 20 minutes. The latter sequence of resuspension, incubation, and rentrifugation was repeated. The pellet was frozen under fresh 10% Krebs-HEPES buffer and stored at −40° C. until assayed. Upon assay, the pellet was resuspended in the Krebs-HEPES buffer, incubated at 37° C. for 5 minutes, and centrifuged at 15,000 g for 20 mm. The final pellet was resuspended in 3.6 ml ice-cold MilliQ water which provided for approximately 200 μg protein per 100 μl aliquot. Competition assays were performed in triplicate in a final volume of 200 μl Krebs-HEPES buffer containing 250 mmol Tris buffer (pH 7.5 at 4° C.). […] After a 90 min incubation at 4° C., reactions were terminated by dilution of the samples with 3 ml of ice-cold Krebs-HEPES buffer followed immediately by filtration through Whatman GF/B glass fiber filters (presoaked in 0.5% polyethyleneimine) using a Brandel Cell Harvester. Filters were rinsed three times with 3 ml of ice-cold Krebs-HEPES buffer, transferred to scintillation vials, and 5 ml scintillation cocktail (Research Products International Corp., Mt. Prospect, Ill.) added. Nonspecific binding determined in triplicate was defined as binding in the presence of 10 μM NIC. Binding parameters were determined using the weighted, least squares nonlinear regression analysis.

Test [3] deals with putative α3β2* receptor subtype. Nature of the test: Inhibition of S-(−)-NIC-evoked [3H]-DA release from rat striatal slices. The test is classed as cell-based. The following applies: rat striatal slices superfused 60 minutes with analog prior to NIC (10 μM). The method, then:
Rat striatal slices (500 μm thickness, 6–8 mg wet weight) were incubated for 30 minutes in Kreb's buffer (118 mM NaCl, 4.7 mMKCl, 1.2 mM MgCl2, 1.0 mM NaH2PO4, 1.3 mM CaCl2, 11.1 mM glucose, 25 mM NaHCO3, 0.11 mM L-ascorbic acid, and 0.004 mM disodium EDTA; pH 7.4, and saturated with 95% O2/5% CO2) in a metabolic shaker at 34° C. Slices were rinsed with 15 ml of fresh buffer and incubated for an additional 30 minutes in fresh buffer containing 0.1 μM [^3]H-DA (6 slices/3 ml). Subsequently, slices were rinsed with 15 ml of fresh buffer and transferred to a glass superfusion chamber. Slices were superfused (1.0 ml/min) for 60 minutes with Kreb's buffer containing nomifensine (10 μM) and pargyline (10 μM) and maintained at 34° C., pH 7.4, with continual aeration (95% O2/5% CO2). Two five minute samples (5 ml each) were collected to determine basal outflow of [^3H]-DA. […] Subsequently, S-(−)-nicotine (10 μM) was added to the buffer and an additional 12 consecutive five minute samples were collected. At the end of the experiment, each slice was solubilized and the [^3H] content of the tissue determined.
Radioactivity in the superfusate and tissue samples was determined by liquid scintillation spectroscopy. Fractional release for each sample was calculated by dividing by the total tritium present in the tissue at the time of sample collection, and was expressed as a percentage of total tissue tritium. […] The sum of the increase in collected tritium resulting from either exposure to the test-compound or exposure to nicotine in the absence and presence of the test compound equaled total [^3H]overflow. [^3H]Overflow was calculated by subtracting the [^3H]outflow during an equivalent period of prestimulation from the values in samples collected during and after drug exposure. Inasmuch as the radiolabelled compounds were not separated and identified, the tritium collected in superfusate is referred to as either [^3H]outflow or [^3 H]overflow, rather than as [^3H]-DA. [^3H]Overflow primarily represents [^3H]-DA in the presence of nomifensine and pargyline in the superfusion buffer.
In these experiments, striatal slices were superfused for 60 minutes with various concentrations of the analogs prior to NIC (10 μM) exposure. Antagonist activity was evaluated by comparing the NIC-evoked [^3H]overflow in the absence and presence of the analogs.

[4] abbreviates: rat brain membranes, 2.5 nM [3H]-MLA.

pIC50, pKi: −log10 of the molar value. Structures can show the parent of a compound that is named as a salt. Where two headings read alike, the source gives them in different places. Some results are limits rather than exact numbers.

T1 sequence (Q05941 23-502): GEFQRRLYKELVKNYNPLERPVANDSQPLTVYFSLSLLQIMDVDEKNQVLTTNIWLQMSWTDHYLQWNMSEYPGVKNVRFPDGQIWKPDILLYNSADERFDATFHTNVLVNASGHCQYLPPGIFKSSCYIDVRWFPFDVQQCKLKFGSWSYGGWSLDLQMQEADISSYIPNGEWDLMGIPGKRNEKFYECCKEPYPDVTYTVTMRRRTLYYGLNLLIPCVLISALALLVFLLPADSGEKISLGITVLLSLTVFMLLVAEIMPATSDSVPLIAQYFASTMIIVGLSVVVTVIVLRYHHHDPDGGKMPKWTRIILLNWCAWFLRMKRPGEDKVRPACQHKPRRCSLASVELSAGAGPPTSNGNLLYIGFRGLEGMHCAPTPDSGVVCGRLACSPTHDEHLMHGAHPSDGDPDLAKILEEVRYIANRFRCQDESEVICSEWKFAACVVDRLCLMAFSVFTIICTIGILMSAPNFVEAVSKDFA

Turning to `CN1CCC[C@H]1c1ccc[n+](CCCCCCC2CCC2)c1` [NCyNB-4, (S)-1-(6-Cyclobutyl-hexyl)-3-(1-methyl-pyrrolidin-2-yl)pyridinium bromide hydrobromide salt], the pKi was 4.52 in test [1] (setting [4]) and 5.14 in test [2].
Regarding `CN1CCC[C@H]1c1ccc[n+](CCCCCCC2CCCC2)c1` [NCyNB-5, (S)-1-(6-Cyclopentyl-hexyl)-3-(1-methyl-pyrrolidin-2-yl)-pyridinium bromide hydrobromide salt], the pKi was 4.05 in test [1] (setting [4]) and 5.26 in test [2].
Taken in the same sequence, the figures for `CN1CCC[C@H]1c1ccc[n+](CCCCCCC2CCCCC2)c1` [NCyNB-6, (S)-1-(6-Cyclohexyl-hexyl)-3-(1-methyl-pyrrolidin-2-yl)-pyridinium bromide hydrobromide salt] were 4.37 and 5.34.
`CCCCCCC#CCC[n+]1cccc([C@@H]2CCCN2C)c1` [NDNB-3y, (S)-1-Dec-3-ynyl-3-(1-methyl-pyrrolidin-2-yl)-pyridinium bromide] gave a pIC50 in test [3] of 5.59. Also, in test [2], the pKi was 6.09.
Taken in the same sequence, the figures for `CCCCC/C=C\CCC[n+]1cccc([C@@H]2CCCN2C)c1` [NDNB-4c, (S)-cis-1-Dec-4-enyl-3-(1-methyl-pyrrolidin-2-yl)-pyridinium bromide hydrobromide salt] were 5.83 and 5.11.
Compound `CCCCC/C=C/CCC[n+]1cccc([C@@H]2CCCN2C)c1` [NDNB-4t, (S)-trans-1-Dec-4-enyl-3-(1-methyl-pyrrolidin-2-yl)-pyridinium bromide] gave a pIC50 in test [3] of 6.48. For the same compound, the pKi in test [2] is 6.49.
Taken in the same sequence, the figures for `CCCCCCCCCC[n+]1cccc([C@@H]2CCCN2C)c1` [NDNI, N-n-decylnicotinium iodide, reference compound] were less than 4.00 and 7.03.
Turning to `CCOCCOCC[n+]1cccc([C@@H]2CCCN2C)c1` [NONB-3O6O, (S)-1-[2-(2-Ethoxy-ethoxy)-ethyl]-3-(1-methyl-pyrrolidin-2-yl)-pyridinium bromide], the pKi in test [2] was 5.92.
In the case of `CCCC/C=C\CC[n+]1cccc([C@@H]2CCCN2C)c1` [NONB-3c, (S)-cis-3-(1-Methyl-pyrrolidin-2-yl)-1-oct-3-enyl-pyridinium bromide hydrobromide salt], the pIC50 in test [3] is 5.69. In addition, the pKi in test [2] is 7.07.
Taken in the same sequence, the figures for `CCCC/C=C/CC[n+]1cccc([C@@H]2CCCN2C)c1` [NONB-3t, (S)-trans-3-(1-Methyl-pyrrolidin-2-yl)-1-oct-3-enyl-pyridinium bromide hydrobromide salt] were 5.46 and 5.40.
Taken in the same sequence, the figures for `CCCCC#CCC[n+]1cccc([C@@H]2CCCN2C)c1` [NONB-3y, (S)-3-(1-Methyl-pyrrolidin-2-yl)-1-oct-3-ynyl-pyridinium bromide] were 5.77 and 6.70.
Taken in the same sequence, the figures for `CC(C)=CCCCCC[n+]1cccc([C@@H]2CCCN2C)c1` [NONB-6e7M, (S)-1-(7-Methyl-oct-6-enyl)-3-(1-methyl-pyrrolidin-2-yl)-pyridinium bromide hydrobromide] were 5.70 and 6.35.
For the compound `CC(C)CCCCCC[n+]1cccc([C@@H]2CCCN2C)c1` [NONB-7M, (S)-1-(7-Methyl-octyl)-3-(1-methyl-pyrrolidin-2-yl)-pyridinium bromide hydrobromide salt], in test [3], the pIC50 is less than 4.00. In addition, the pKi in test [2] is 6.36.
Taken in the same sequence, the figures for `C=CCCCCCC[n+]1cccc([C@@H]2CCCN2C)c1` [NONB-7e, (S)-3-(1-Methyl-pyrrolidin-2-yl)-1-oct-7-enyl-pyridinium bromide] were 5.58 and 6.35.
In test [3], `CCCCCCCC[n+]1cccc([C@@H]2CCCN2C)c1` [NONI, N-n-octylnicotinium iodide, reference compound] gave a pIC50 of 6.21.
For α-Bungarotoxin [reference compound], in test [1], the pKi is 8.14.

As a reminder, the pKi is the negative decadic logarithm of the Ki, by convention in mol/L. As a reminder, the pIC50 is −log10 of the IC50, conventionally taken in molar units. Higher therefore signals a low IC50.
